Measured values from patent publication US20230051589A1, “COMPOUNDS AND COMPOSITIONS FOR TREATING CONDITIONS ASSOCIATED WITH NLRP ACTIVITY” (Novartis AG, priority 2018, published 2023).
Read-outs that look alike come from different tables or passages of the source.

System: IL-1β production in PMA-differentiated THP-1 cells
Assay: IL-1β production in PMA-differentiated THP-1 cells stimulated with gramicidin (hTHP-1 assay, 2% fetal bovine serum; Procedures 1-3)
Format: cell-based, human
How it was run: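 IL-1β released into supernatants was read by HTRF after 2 h gramicidin (5 μM) challenge. Before challenge, compounds (3-fold dilutions, top 100 μM, 0.37% DMSO) were given 1 h on THP-1 cells differentiated with PMA (20 ng/ml, 16-18 h) and held in 2% FBS medium.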

[1] = Homo sapiens, THP-1, hTHP-1 assay containing 2% fetal bovine serum, Table B2, given as bound, read-out: IC50
[2] = hTHP-1 assay containing 2% fetal bovine serum, Table B2, class symbols, read-out: IC50
[3] = hTHP-1 assay containing 2% fetal bovine serum, Table B2, given as bound, read-out: IC50
[4] = Table B3, hTHP-1 assay containing 2% fetal bovine serum, gramicidin stimulation, IL-1β readout, read-out: hTHP-1 IC50
[5] = Homo sapiens, THP-1, hTHP-1 assay containing 2% fetal bovine serum, Table B2, class symbols, read-out: IC50
[6] = Homo sapiens, THP-1, Table B3, hTHP-1 assay containing 2% fetal bovine serum, gramicidin stimulation, IL-1β readout, read-out: hTHP-1 IC50

CN1CCc2ccc(S(N)(=O)=NC(=O)Nc3c4c(cc5c3CCC5)CCC4)cc2C1 (single isomer, unassigned) [Example 584, (S) or (R)-N′-((1,2,3,5,6,7-hexahydro-s-indacen-4-yl)carbamoyl)-2-methyl-1,2,3,4-tetrahydroisoquinoline-7-sulfonimidamide]
IC50 [1]: > 30000 nM

CC(C)(O)c1cc(F)c(S(N)(=O)=NC(=O)Nc2c3c(cc4c2CCC4=O)CCC3)s1 (single isomer, unassigned) [Example 601, (S) or (R)-3-fluoro-5-(2-hydroxypropan-2-yl)-N′-((1-oxo-1,2,3,5,6,7-hexahydro-s-indacen-4-yl)carbamoyl)thiophene-2-sulfonimidamide]
IC50 [2]: 5000 to 30000 nM

CN(C)Cc1ccc([S@@](N)(=O)=NC(=O)Nc2c3c(cc4c2CCC4)CCC3)cc1F (single isomer, unassigned) [Example 604, (S) or (R)-4-((dimethylamino)methyl)-3-fluoro-N′-((1,2,3,5,6,7-hexahydro-s-indacen-4-yl)carbamoyl) benzenesulfonimidamide]
IC50 [3]: > 30000 nM

CN1CCc2sc(S(N)(=O)=NC(=O)Nc3c4c(cc5c3CCC5)CCC4)cc2C1 (single isomer, unassigned) [Example 687, (R) or (S)-N′-((1,2,3,5,6,7-hexahydro-s-indacen-4-yl)carbamoyl)-5-methyl-4,5,6,7-tetrahydrothieno [3,2-c]pyridine-2-sulfonimidamide]
IC50 [2]: 40 to 200 nM

(S)- and (R)-3-Fluoro-5-((methylamino)methyl)-N′-((2,4,5,6-tetrahydro-1H-cyclobuta[f]inden-3-yl)carbamoyl)thiophene-2-sulfonimidamide [Example 670]
IC50 [2]: 40 to 200 nM

CN1CCCC(c2ccc(S(N)(=O)=NC(=O)Nc3c4c(cc5c3CC5)CCC4)c(F)c2)C1 (single isomer, unassigned) [Example 860, (R, S) or (S, S)-2-fluoro-4-(1-methylpiperidin-3-yl)-N′-((2,4,5,6-tetrahydro-1H-cyclobuta[f]inden-3-yl)carbamoyl)benzenesulfonimidamide]
IC50 [4]: > 30000 nM

CN(C)C(c1ccc(S(N)(=O)=NC(=O)Nc2c3c(cc4c2CCC4)CCC3)cc1)C(F)F (centres unmarked) [Example 474, 4-(1-(Dimethylamino)-2,2-difluoroethyl)-N-((1,2,3,5,6,7-hexahydro-s-indacen-4-yl)carbamoyl)benzenesulfonimidamide]
IC50 [5]: 1000 to 5000 nM

CC(C)(O)c1cnc([S@](N)(=O)=NC(=O)Nc2c3c(cc4c2C(O)CC4)CCC3)s1 (stereo partly drawn) [Example 510, (R)-N′-((3-hydroxy-1,2,3,5,6,7-hexahydro-s-indacen-4-yl)carbamoyl)-5-(2-hydroxypropan-2-yl)thiazole-2-sulfonimidamide]
IC50 [5]: 200 to 1000 nM

CC(C)(O)c1ncc(S(N)(=O)=NC(=O)Nc2c3c(c(Cl)c4c2CCC4)CCC3)s1 (single isomer, unassigned) [Example 596, (S) or (R)-N′-((8-chloro-1,2,3,5,6,7-hexahydro-s-indacen-4-yl)carbamoyl)-2-(2-hydroxypropan-2-yl)thiazole-5-sulfonimidamide]
IC50 [2]: 1000 to 5000 nM

NS(=O)(=NC(=O)Nc1c2c(cc3c1CC3)CCC2)c1cc2c(s1)CCNC2C(F)F (centres unmarked) [Example 781, 4-(Difluoromethyl)-N′-((2,4,5,6-tetrahydro-1H-cyclobuta[f]inden-3-yl)carbamoyl)-4,5,6,7-tetrahydrothieno[3,2-c]pyridine-2-sulfonimidamide]
IC50 [6]: 40 to 200 nM

CC(C)Cc1ccc(S(N)(=O)=NC(=O)Nc2c3c(cc4c2CCC4)CCC3)cc1 (single isomer, unassigned) [Example 619, (R) or (S)-N′-((1,2,3,5,6,7-hexahydro-s-indacen-4-yl)carbamoyl)-4-isobutylbenzene-sulfonimidamide]
IC50 [3]: > 30000 nM

NS(=O)(=NC(=O)Nc1c2c(cc3c1CC3)CCC2)c1cc2c(s1)CCNC2 (centres unmarked) [Example 715, N′-((2,4,5,6-tetrahydro-1H-cyclobuta[f]inden-3-yl)carbamoyl)-4,5,6,7-tetrahydrothieno[3,2-c]pyridine-2-sulfonimidamide]
IC50 [6]: 40 to 200 nM

NS(=O)(=NC(=O)Nc1c2c(cc3c1CC3)CCC2)c1sc(CN2CCC2)cc1F (single isomer, unassigned) [Example 844, (S) or (R)-5-(azetidin-1-ylmethyl)-3-fluoro-N′-((2,4,5,6-tetrahydro-1H-cyclobuta[f]inden-3-yl)carbamoyl)thiophene-2-sulfonimidamide]
IC50 [4]: 1000 to 5000 nM

NS(=O)(=NC(=O)Nc1c2c(cc3c1CCC3)CCC2)c1cnc(C(O)(COCCOCc2ccccc2)COCCOCc2ccccc2)s1 (centres unmarked) [Example 780, N′-((1,2,3,5,6,7-hexahydro-s-indacen-4-yl)carbamoyl)-2-(7-hydroxy-1,13-diphenyl-2,5,9,12-tetraoxatridecan-7-yl)thiazole-5-sulfonimidamide]
IC50 [6]: 1000 to 5000 nM

C[C@](O)(COCCO)c1ccc([S@](N)(=O)=NC(=O)Nc2c3c(cc4c2CCC4)CCC3)s1 [Example 749, (R)-N′-((1,2,3,5,6,7-hexahydro-s-indacen-4-yl)carbamoyl)-5-((S)-2-hydroxy-1-(2-hydroxyethoxy)propan-2-yl)thiophene-2-sulfonimidamide]
IC50 [6]: 200 to 1000 nM

CN1CCC[C@H](c2ccc([S@@](N)(=O)=NC(=O)Nc3c4c(cc5c3CC5)CCC4)c(F)c2)C1 [Compound 911c]
IC50 [1]: > 30000 nM

CNC(c1ccc(S(N)(=O)=NC(=O)Nc2c3c(cc4c2CC4)CCC3)s1)C1CC1 (single isomer, unassigned) [Example 720, 5-((S) or (R)-cyclopropyl(methylamino)methyl)-N′-((2,4,5,6-tetrahydro-1H-cyclobuta[f]inden-3-yl)carbamoyl)thiophene-2-sulfonimidamide]
IC50 [4]: 8 to 40 nM

CC(C)(O)c1ncc(S(N)(=O)=NC(=O)Nc2c3c(cc4c2CC4)CCC3)s1 [Example 225, (R)- and (S)-2-(2-hydroxypropan-2-yl)-N′-((2,4,5,6-tetrahydro-1H-cyclobuta[f]inden-3-yl)carbamoyl)thiazole-5-sulfonimidamide]
IC50 (Table B1, hTHP-1 assay containing 2% fetal bovine serum, gramicidin stimulation, IL-1β readout, read-out: hTHP-1 IC50 (average)): 1000 to 5000 nM

CC(O)(CO)c1ncc(S(N)(=O)=NC(=O)Nc2c3c(c(C#N)c4c2CCC4)CCC3)s1 (single isomer, unassigned) [Example 636, (S,R) or (R,R)-N′-((8-cyano-1,2,3,5,6,7-hexahydro-s-indacen-4-yl)carbamoyl)-2-(1,2-dihydroxypropan-2-yl)thiazole-5-sulfonimidamide]
IC50 [2]: 40 to 200 nM

COC1CCc2csc(S(N)(=O)=NC(=O)Nc3c4c(cc5c3CCC5)CCC4)c2C1 (single isomer, unassigned) [Example 855, (R, S) or (S, S)-N′-((1,2,3,5,6,7-hexahydro-s-indacen-4-yl)carbamoyl)-6-methoxy-4,5,6,7-tetrahydrobenzo[c]thiophene-1-sulfonimidamide]
IC50 [4]: > 30000 nM

CC(C)(O)c1sc(S(N)(=O)=NC(=O)Nc2c3c(cc4c2CCC4)CCC3)cc1-c1ccccc1 (centres unmarked) [Compound 900]
IC50 [5]: 40 to 200 nM

Cc1c(C2CC2)cc2c(c1NC(=O)N=S(N)(=O)c1cnc(C(C)(C)O)s1)CCC2 (single isomer, unassigned) [Example 563, (R) or (S)-N′-((6-cyclopropyl-5-methyl-2,3-dihydro-1H-inden-4-yl)carbamoyl)-2-(2-hydroxypropan-2-yl)thiazole-5-sulfonimidamide]
IC50 [2]: 40 to 200 nM

CN(C)C(c1ccc(S(N)(=O)=NC(=O)Nc2c3c(cc4c2CCC4)CCC3)cc1)C1CC1 (single isomer, unassigned) [Example 659]
IC50 [2]: 5000 to 30000 nM

N[S@](=O)(=NC(=O)Nc1c2c(cc3c1CCC3)CCC2)c1ccc([C@H]2CCN2)cc1 [Compound 802b]
IC50 [5]: 5000 to 30000 nM

CC(C)(O)c1cnc(S(N)(=O)=NC(=O)Nc2c3c(cc4c2C(O)CC4)CCC3)s1 (single isomer, unassigned) [Example 654, (S,R) or (S,S)-N′-((-3-hydroxy-1,2,3,5,6,7-hexahydro-s-indacen-4-yl)carbamoyl)-5-(2-hydroxypropan-2-yl)thiazole-2-sulfonimidamide]
IC50 [1]: > 30000 nM

COCCOC[C@@](C)(O)c1ncc(S(N)(=O)=NC(=O)Nc2c3c(cc4c2CCC4)CCC3)s1 (stereo partly drawn) [Example 684, N′-((1,2,3,5,6,7-hexahydro-s-indacen-4-yl)carbamoyl)-2-((R)-2-hydroxy-1-(2-methoxyethoxy)propan-2-yl)thiazole-5-sulfonimidamide]
IC50 [5]: 40 to 200 nM

NS(=O)(=NC(=O)Nc1c2c(cc3c1CCC3)CCC2)c1ccc(CN2CCC(F)(F)C2)cc1 (single isomer, unassigned) [Example 621, (S) or (R)-4-((3,3-difluoropymolidin-1-yl)methyl)-N′-((1,2,3,5,6,7-hexahydro-s-indacen-4-yl)carbamoyl) benzenesulfonimidamide]
IC50 [1]: > 30000 nM

NS(=O)(=NC(=O)Nc1c2c(cc3c1CCC3)CCC2)c1cc2c(s1)COCC2 (single isomer, unassigned) [Example 693, (R) or (S)-N′-((1,2,3,5,6,7-hexahydro-s-indacen-4-yl)carbamoyl)-4,7-dihydro-5H-thieno[2,3-c]pyran-2-sulfonimidamide]
IC50 [2]: 200 to 1000 nM
